This note sets out measurements from patent publication US12590126B2, “Compounds for selective disruption of protein-protein interactions” (SyntheX, Inc., priority 2017, dated 2026).

Data set [1] is described as follows: Mouse pharmacokinetics, IV and IP dosing. It is filed as in vivo, mice. How it is done:
The pharmocokinetic parameters in mice by both intravenous (IV) and intraperitoneal (IP) dosing, as well as the serum and microsome stability for each of compound 22, 23, 24, and 25 was determined. Bioanalytical methods were developed for each compound using an LC-MS/MS method with LLOQ>100 ng/ml.
For in-vivo PK work, at least 3 mice were used per timepoint. For each compound, the animals were injected either IV or IP with the compound. IV injections used 1 mg/kg, and IP injections were at 15 mg/kg. Blood was collected at the indicated timepoints and analyzed according to the bioanalytical method developed.

Data set [2] can be described thus: in vitro. Particulars: mouse, microsomes.
Method: (§1) For HLM and MLM stability studies, each compound was incubated with the liver microsome mixture for up to an hour at 37 C in the presence of NADPH.
(§2) After the incubations, the reactions were stopped and the compounds were analyzed according to the method developed for each.
Data set [3] in a line: in vitro. The conditions noted are these: human, microsomes.
Method: as §1, §2
In a further data set the test system is fresh human RBCs. Format: cell-based. How it is done: To assess the nonspecific lytic properties of each compounds disclosed herein, each mentioned compound was tested for hemolytic properties against fresh human RBCs. Briefly, donor blood was drawn into a K2EDTA anticoagulant tube from multiple O+ donors. The blood was washed 3 times in PBS. RBCs were diluted to 2% in PBS and compounds were added at various concentrations. Samples were incubated at 37 C for 1 hr, then centrifuged at 2200 rpm for 5 min. Supernatants were measured for absorbance at 450 nm or 405 nm. The percentage hemolysis was calculated as lysis relative to 1% Triton X-100 incubation.

A further data set deals with SSP-25 cells. In words: xCELLigence cell death assay in SSP-25 cells (cellular assay for RAD51 inhibition). It is filed as cell-based. Particulars: concentration gradient added at 20 hour mark, only values with R^>0.85 shown. How it is done: The efficacy of the peptides described herein was assessed by their ability to cause death in SSP-25 cells, which have amplification of RAD51 and are dependent on its activity.
First, 5,000 SSP25 cells were plated, and adherence and growth was measured for 20 hours using live measurements of current impedance through the plate using the xCELLigence™ instrument. At the 20 hour mark, a concentration gradient of each compound or a PBS control was added to the SSP-25 cells, which were cultured in […] RMPI media with 10% FBS. […] Only values with confidence and R^>0.85 are shown.

The nature of data set [4]: in vitro. Particulars: mouse, serum.
Method: Serum stability data was obtained using the appropriate animal serum, each incubated with the compound for up to two hours at 37 C.
Data set [5] deals with A549 cells. The data set can be described thus: Intracellular calcium imaging with Fluo-2-AM. Particulars: 30 μM compound, pre-incubation with 2.5 μM Fluo-2-AM. It is filed as cell-based. From the text:
Timestamps for the duration of the experiment are indicated in each panel.

The subject of data set [6] is SSP25 cells. The data set can be described thus: Selective killing, Cytation imaging of SSP25 cells. It is filed as cell-based. The conditions noted are these: 10 μM. How it is done:
To assess the specificity of compounds disclosed herein in targeting cancers with overexpression of RAD51, Compound 1 was tested against primary fibroblasts and SSP25 cells (cholangiocarcinoma cell line) (FIG. 5). First, 5,000 cells were incubated in 96-well culture plates overnight. Cells were grown in DMEM or RPMI, respectively, with 10% FBS, and […] was added to a concentration of 10 μM and imaging commenced using a Cytation™ instrument using approximately 5 minute time points. DAPI was used to visualize the nuclei and mitotracker-red was used to observe mitochondria. […] Furthermore, cell morphology was affected within 5 minutes of imaging, and the macrobubble phenotype was stable for further periods of time.

In data set [7] the test system is SSP25 cells. The data set can be described thus: xCELLigence cell death assay with intracellular calcium chelators. Particulars: relative to compound alone. It is filed as cell-based. How it is done: To investigate the hypothesis that peptide treatment of cells causes cell death via increases in intracellular free calcium levels, Compound 1 alone and in combination with two different intracellular calcium chelators (1,2-Bis(2-aminophenoxy)ethane-N,N,N′,N′-tetraacetic acid tetrakis(acetoxymethyl ester) aka “BAPTA-AM”, and ammoniated ruthenium oxychloride aka “ruthenium red”) was tested in an xCELLigence™ cell death assay as in Example 1. The intracellular calcium chelators alone were also evaluated on the cells.

Data set [8] relates to A549 cells. The data set can be described thus: A549 cell growth/death, xCELLigence and microscopy. It is filed as cell-based. Particulars: xCELLigence, concentration gradient. How it is done:
To assess the growth inhibitory properties of compounds disclosed herein, 10 μM of Compound 1 was tested against a PBS mock treatment for growth of A549 cells using microscopy at the indicated timepoints shown in the top right corner of each panel of FIG. 2. […] First, 5,000 A549 cells were plated, and adherence and growth was measured for 20 hours using live measurements of current impedance through the plate using the xCELLigence™ instrument. At the […] mark, a concentration gradient of Compound 1 or a PBS control was added to the A549 cells, which were cultured in 100 μL DMEM media with 10% FBS.

Data set [9] concerns SSP25 cells. In words: xCELLigence cell death assay with necroptosis or apoptosis inhibitor. The conditions noted are these: for cell death with added necroptosis inhibitor Necrostatin: 40 μM compound + 50 μM Necrostatin; for cell death with added apoptosis inhibitor z-VAD: 40 μM compound + 100 μM z-VAD. It is filed as cell-based. How it is done:
Further experiments were performed to elucidate the method of cell death induced by Compound 1. In one experiment, xCELLIGENCE cell death assays as in Examples 1 and 5 were performed, treating with either a necroptosis inhibitor (Necrostatin, 50 μM) alone or in combination with Compound 1 (40 μM). In another experiment, xCELLIGENCE cell death assays as in Examples 1 and 5 were performed, treating with either a apoptosis inhibitor (z-VAD, 100 μM) alone or in combination with Compound 1 (40 μM).

The test system of another data set is A549 xenograft. The data set can be described thus: A549 xenograft in athymic nu/nu mice, Compound 1 IT and IP. Format: in vivo. Particulars: for tumor volume / size, intra-tumoral dosing: 50 microliters of 10 or 20 mg/ml IT, day 0, day 3 and every other day. How it is done: Female athymic nu/nu mice (6-8 weeks old) were purchased from Simonsen labs (n=12) and were housed at the Murigenics vivarium in Vallejo. The mice were acclimated to the setting of the vivarium for 5 days and maintained on a standard chow diet; 12:12 dark/light cycle; and group housed (3 mice per cage) in HEPA-filtered cages. After acclimation, each mouse was injected subcutaneously (lower left abdominal flank) with 5×10^6 A549 (ATCC: CCL-185) cells mixed with 1:1 (v/v) with Matrigel solution. When the tumors reached a volume of—100 mm3, the mice were divided into separate treatment groups for the desired treatments. Experiments using both intra-tumoral (IT) and intraperitoneal (IP) administration were performed and the data are reported in FIGS. 10 and 11.
Mice prepared as described above were divided into 4 groups: • Group 1: received an intra-tumoral injection of 50 microliters of Phosphate Buffered Saline (mock) (n=3) • Group 2: received an intra-tumoral injection of 50 microliters of 10 mg/ml Compound 1 in Phosphate Buffered Saline (n=3) • Group 3: received an intra-tumoral injection of 50 microliters of 20 mg/ml Compound 1 in Phosphate Buffered Saline (n=3)
The 50 microliter injections were carried out with a (30 g needle). The injections were administered on day zero and then again on day 3, and every other day. The length (L) and the width (W) of the tumor mass was measured with a Vernier caliper and the tumor volume (V) was calculated as V=(L×WA2)/2. The relative tumor volume of each tumor mass on each measurement day was normalized against the initial volume of the same mass on day zero right before initiation of injections. […]
The injections were carried out with a 30 g needle. […] The length (L) and the width (W) of the tumor mass was measured with a Vernier caliper and the tumor volume (V) was calculated as V=(L×WA2)/2. […]

Entries after “also recorded” stand apart in the source; their conditions may differ. Where two headings read alike, the source gives them in different places. [ ]: non-standard residue; d: D form.

Take `CCCC[C@@H](NC(=O)[C@@H](CC(C)C)NC(C)=O)C(=O)N[C@H](CCCNC(=N)N)C(=O)N[C@H](CO)C(=O)N[C@@H](C(=O)N[C@H](CCCNC(=N)N)C(=O)N[C@H](CC(C)C)C(=O)N[C@H](CCCNC(=N)N)C(=O)N[C@@H](C(=O)NCC(=O)N[C@H](CC(C)C)C(=O)N[C@H](CCCNC(=N)N)C(=O)NCCCCCC(=O)N[C@H](CCCNC(=N)N)C(=O)NCCCCCC(=O)N[C@H](CCCNC(=N)N)C(=O)NCCCCCC(=O)N[C@H](CCCNC(=N)N)C(=O)NCCCCCC(=O)N[C@H](CCCNC(=N)N)C(=O)NCCCCCC(=O)N[C@H](CCCNC(=N)N)C(N)=O)C(C)C)C(C)C` [Compound 25, Ac-l{d-norLeucine}rsvrlrvGlr(Ahx)r(Ahx)r(Ahx)r(Ahx)r(Ahx)r-NH2]: the “AUC Extr” value in data set [1] (1 mg/kg IV) was 16.8%. Moreover, in data set [1] (15 mg/kg IP), the Vss is given as 3.41 L/kg. The AUC(0-inf) was determined as 308 ng·h/mL in [1] (in vivo, 1 mg/kg IV) and 831 ng·h/mL in data set [1] (in vivo, 15 mg/kg IP). The AUC(0-t) in data set [1] (in vivo, 1 mg/kg IV) was 254 ng·h/mL. The C0 in [1] (in vivo, 1 mg/kg IV) was found to be 750 ng/mL. In addition, the MRT inf came to 0.551 h in [1] (in vivo, 1 mg/kg IV) and 21.8 h in data set [1] (in vivo, 15 mg/kg IP). In data set [1] (in vivo, 1 mg/kg IV), this compound displayed a clearance of 55.7 mL/min/kg. Also, the half-life in data set [1] (in vivo, ip, 15 mg/kg, 15 mg/kg IP, read-out: t½ (converted)) was 2.14 h; in [1] (in vivo, ip, 15 mg/kg, IP (15 mg/kg), read-out: Half-life Mouse IP), 2.14 h; in data set [1] (in vivo, iv, 1 mg/kg, 1 mg/kg IV, read-out: t½ (converted)), 0.423 h; in data set [1] (in vivo, iv, 1 mg/kg, IV (1 mg/kg), read-out: Half-life Mouse IV) it was 0.423 h; in “in vitro [2]” it was 0.77 h; in the data set “in vitro [3]”, 1.36 h. In addition, the half-life in the data set “in vitro [4]” was over 8.33 h. For the same compound, the Vd came out at 1.8 L/kg in data set [1] (in vivo, iv, 1 mg/kg, 1 mg/kg IV, read-out: Vss) and 1.99 L/kg in data set [1] (in vivo, iv, 1 mg/kg, 1 mg/kg IV, read-out: Vz). Moreover, the “% Hemolysis (250 uM)” value in the data set on fresh human RBCs (red cells of human, 1 h, 250) came out at 4%. In the data set with SSP-25 cells, the half-inhibitory concentration (IC50) worked out at 14 µM.

As for “Ac-lmrsvrlrvGlrkrrrrrrr-NH2 (Ac-[dL][dM][dR][dS][dV][dR][dL][dR][dV]G[dL][dR][dK][dR][dR][dR][dR][dR][dR][dR]-NH2) [Compound 1]”, in the data set with A549 cells [5], the “intracellular calcium (Fluo-2 dye)” value is recorded as “accumulation of intracellular calcium”. The “time until cell morphology was affected” value in the data set on SSP25 cells [6] is reported as at most 5 minutes. In the data set with SSP25 cells [6] (approx. 5 minute time points), the “cell morphology / cell death in SSP25 cells” value is “drastically affected in SSP25 cells”. Also, the “cell death with added calcium chelator BAPTA-AM” value in the data set on SSP25 cells [7] (10 μM compound + 10 μM BAPTA-AM) was “rescues cell death relative to compound alone; also recorded: addition of BAPTA-AM rescues cell death”. Moreover, the “cell death with added calcium chelator ruthenium red” value with SSP25 cells [7] (10 μM compound + 40 μM Ruthenium red) was “rescues cell death relative to compound alone; also recorded: addition of ruthenium red rescues cell death”. For the same compound, in the data set on fresh human RBCs, the “% Hemolysis (250 uM)” value is recorded as 3%. In the data set with SSP-25 cells, this compound returned a concentration for half-maximal inhibition (IC50) of 2.4 µM. Besides, the “effect on growth / cell death of A549 cells” value in the data set with A549 cells [8] is “dose-dependent effect on the growth of A549 cells displaying acute cell death kinetics”. Further, the “cell death with added necroptosis inhibitor Necrostatin” value was “addition of the inhibitor has no effect on the activity” with SSP25 cells [9] and “does not cause cell death through necroptosis or apoptosis” with SSP25 cells [9] (listed as compound 1). For the same compound, the “cell death with added apoptosis inhibitor z-VAD” value is recorded as “addition of the inhibitor has no effect on the activity” with SSP25 cells [9] and “does not cause cell death through necroptosis or apoptosis” in the data set with SSP25 cells [9] (listed as compound 1). The “tumor volume / size, intra-tumoral dosing” value in the data set on A549 xenograft is reported as “measurable decreases in tumor size as early as day 3”; with A549 xenograft (listed as compound 1), “significant effects on tumor volume after only a few days of treatment”. The “tumor size, intra-peritoneal dosing” value in the data set on A549 xenograft (125 microliters of 3 mg/ml IP, single dose on day seven) was “measurable decreases in tumor size as early as 3 days after injection (day 10)”.
